Test results taken from patent publication US10799442B2, “Compounds useful in the treatment and/or care of the skin, hair, nails, and/or mucous membranes” (LUBRIZOL ADVANCED MATERIALS, INC., priority 2015, dated 2020).

Test system: Keratin 14
Assay: Keratins expression profile in HEKa with 1 mM CaCl2, Real Time PCR Arrays (Keratin 14)
Type: cell-based, Human
Conditions: Keratin 14 mRNA, 48 hours
Experimental: The candidate compound is assayed for its ability to recover the basal keratinocyte state. The keratinocytes of the four layers of the epidermis present different expression patterns of keratins. Basal keratinocytes strongly express Keratin 14 and when differentiated, Keratin 10 is increased. To elucidate the keratinocyte state (basal or differentiated), the expression profile of keratins is analyzed by Real Time PCR Arrays, using a 96-well panel for use with SYBR® Green (BioRad) to detect mRNA expression levels of two keratin genes (Keratins 10 and 14) plus three housekeeping genes, and five controls, in Human Epidermal Keratinocytes from adult (HEKa) (Cascade Biologics).
HEKa cells are seeded at 6.0×10^5 cells/well in 6-well plates and incubated in culture medium Epilife with defined Growth Supplement (EDGS) (Cascade Biologics), for 24 hours at 37° C. in a water-saturated atmosphere of 95% air and 5% CO2. After 24 hours, the medium is removed and the cells are incubated with the synthetic peptide candidate at several concentrations in culture medium that contains 1 mM CaCl2) (Sigma) to induce differentiation of keratinocytes. Cells are incubated with 1 mM CaCl2) in culture medium and this provides a positive control of differentiation. Cells are incubated with culture medium only and these provide basal conditions. After 48 hours of treatment at 37° C. in a CO2 incubator, the cells are lysed directly in the wells, and RNA is purified following the protocol described on the RNeasy Mini kit (Qiagen) according to the manufacture's protocol. After RNA elution, quantification and analysis of purity of RNA samples are performed with a biophotometer (Eppendorf). […] SYBR Green binds to double-stranded DNA molecules and emits fluorescence which is quantified; the fluorescence intensity is proportional to the amount of the product in the PCR reaction. […] Fold change relative to the expression of the sample genes and reference genes is calculated using normalized expression (ΔΔ(Ct)) method using CFX Manager Software (BioRad).

Fold induction respect to positive control of differentiation (1 mM CaCl2, 0.001 mg/ml): 1.29 ± 0.15 | Fold induction respect to positive control of differentiation (1 mM CaCl2, 0.005 mg/ml): 1.36 ± 0.15 | Fold induction respect to positive control of differentiation (1 mM CaCl2, 0.01 mg/ml): 1.30 ± 0.09
Substance: Ac-QEMRMQ-OH [DD14024, Ac-Gln-Glu-Met-Arg-Met-Gln-OH]
